From patent US9346815B2, “5-chloro-2-difluoromethoxyphenyl pyrazolopyrimidine compounds, compositions and methods of use thereof” (Genentech, Inc., priority 2014, dated 2016)
Where a name gives a salt, the structure may show the parent alone. Read-outs that look alike come from different tables or passages of the source.

Experiments:
[1] = system: JAK1-dependent STAT6 phosphorylation downstream of IL-13 stimulation in BEAS-2B human bronchial epithelial cells; experiment: JAK1 pathway assay in BEAS-2B cells (IL-13-pSTAT6, MSD); type: cell-based; settings: read-out: IL13-pSTAT6 EC50 (uM)_BEAS-2B
In short: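 Inhibitors were added to TF-1 cells (GM-CSF-starved, serum-free) for 30 min or to BEAS-2B cells (complete medium) for 1 hr at 37° C. MSD detected pSTAT6.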

[2] = target: isolated recombinant JAK2 kinase domain (Homo sapiens (Human), UniProt O60674); experiment: JAK2 enzyme assay (Caliper LabChip, peptide phosphorylation); type: biochemical; settings: 25 μM ATP
[3] = target: isolated recombinant JAK1 kinase domain (Homo sapiens (Human), UniProt P23458); experiment: JAK1 enzyme assay (Caliper LabChip, peptide phosphorylation); type: biochemical
[4] = isolated recombinant JAK1 kinase domain, 25 μM ATP

isolated recombinant JAK1 kinase domain, sequence (P23458 875-1153): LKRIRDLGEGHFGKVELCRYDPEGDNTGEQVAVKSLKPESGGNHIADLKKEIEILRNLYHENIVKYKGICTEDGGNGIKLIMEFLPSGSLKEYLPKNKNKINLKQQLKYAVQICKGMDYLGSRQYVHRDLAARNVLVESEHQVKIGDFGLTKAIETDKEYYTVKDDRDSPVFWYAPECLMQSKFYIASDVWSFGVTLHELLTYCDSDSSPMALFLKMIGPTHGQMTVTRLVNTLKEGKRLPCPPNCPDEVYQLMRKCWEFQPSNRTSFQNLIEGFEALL
isolated recombinant JAK2 kinase domain, sequence (O60674 849-1124): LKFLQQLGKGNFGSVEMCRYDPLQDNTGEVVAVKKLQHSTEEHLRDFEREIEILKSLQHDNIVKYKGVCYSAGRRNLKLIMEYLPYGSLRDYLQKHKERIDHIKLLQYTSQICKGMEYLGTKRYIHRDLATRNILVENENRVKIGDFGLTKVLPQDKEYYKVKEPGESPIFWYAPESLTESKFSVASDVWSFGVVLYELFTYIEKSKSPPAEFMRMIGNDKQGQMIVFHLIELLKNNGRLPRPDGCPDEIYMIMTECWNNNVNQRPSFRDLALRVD

Ki [2] [pM] | Ki [3, 4] [pM] | Compound | EC50 [1] [µM] | Ki [3] [pM]
1040 | 480 | CC(c1ccccc1)N1CCN(C(=O)Cn2cc(NC(=O)c3cnn4cccnc34)c(-c3cc(Cl)ccc3OC(F)F)n2)CC1 (stereo not drawn) [Example 316, N-[3-[5-chloro-2-(difluoromethoxy)phenyl]-1-[2-oxo-2-[4-(1-phenylethyl)piperazin-1-yl]ethyl]-1H-pyrazol-4-yl]pyrazolo[1,5-a]pyrimidine-3-carboxamide] | 0.142 | –
1160 | 640 | CC(C)CN1CCN(C(=O)Cn2cc(NC(=O)c3cnn4cccnc34)c(-c3cc(Cl)ccc3OC(F)F)n2)CC1 [Example 317, N-[3-[5-chloro-2-(difluoromethoxy)phenyl]-1-[2-[4-(2-methylpropyl)piperazin-1-yl]-2-oxoethyl]-1H-pyrazol-4-yl]pyrazolo[1,5-a]pyrimidine-3-carboxamide] | 0.0229 | –
1110 | 560 | CC1(CN2CCN(C(=O)Cn3cc(NC(=O)c4cnn5cccnc45)c(-c4cc(Cl)ccc4OC(F)F)n3)CC2)COC1 [Example 318, N-[3-[5-chloro-2-(difluoromethoxy)phenyl]-1-(2-[4-[(3-methyloxetan-3-yl)methyl]piperazin-1-yl]-2-oxoethyl)-1H-pyrazol-4-yl]pyrazolo[1,5-a]pyrimidine-3-carboxamide] | 0.0283 | –
860 | 500 | CCCN1CCN(C(=O)Cn2cc(NC(=O)c3cnn4cccnc34)c(-c3cc(Cl)ccc3OC(F)F)n2)CC1 [Example 319, N-[3-[5-chloro-2-(difluoromethoxy)phenyl]-1-[2-oxo-2-(4-propylpiperazin-1-yl)ethyl]-1H-pyrazol-4-yl]pyrazolo[1,5-a]pyrimidine-3-carboxamide] | 0.0577 | –
600 | 310 | O=C(Nc1cn(CC(=O)N2CCN(Cc3ccccc3)CC2)nc1-c1cc(Cl)ccc1OC(F)F)c1cnn2cccnc12 [Example 320, N-[1-[2-(4-benzylpiperazin-1-yl)-2-oxoethyl]-3-[5-chloro-2-(difluoromethoxy)phenyl]-1H-pyrazol-4-yl]pyrazolo[1,5-a]pyrimidine-3-carboxamide] | 0.0473 | –
900 | 400 | O=C(Nc1cn(CC(=O)N2CCN(CCN3CCOCC3)CC2)nc1-c1cc(Cl)ccc1OC(F)F)c1cnn2cccnc12 [Example 321, N-[3-[5-chloro-2-(difluoromethoxy)phenyl]-1-(2-[4-[2-(morpholin-4-yl)ethyl]piperazin-1-yl]-2-oxoethyl)-1H-pyrazol-4-yl]pyrazolo[1,5-a]pyrimidine-3-carboxamide] | 0.0133 | –
800 | 310 | COC(=O)CN1CCN(C(=O)Cn2cc(NC(=O)c3cnn4cccnc34)c(-c3cc(Cl)ccc3OC(F)F)n2)CC1 [Example 322, methyl 2-[4-(2-[3-[5-chloro-2-(difluoromethoxy)phenyl]-4-[pyrazolo[1,5-a]pyrimidine-3-amido]-1H-pyrazol-1-yl]acetyl)piperazin-1-yl]acetate] | 0.0411 | –
330 | 680 | O=C1CCC(Cn2cc(NC(=O)c3cnn4cccnc34)c(-c3cc(Cl)ccc3OC(F)F)n2)O1 (stereo not drawn) [Example 323] | 0.0209 | –
1610 | 950 | O=C(Nc1cn(CC(=O)N2CCNCC2)nc1-c1cc(Cl)ccc1OC(F)F)c1cnn2cccnc12 [Example 324, N-[3-[5-chloro-2-(difluoromethoxy)phenyl]-1-[2-oxo-2-(piperazin-1-yl)ethyl]-1H-pyrazol-4-yl]pyrazolo[1,5-a]pyrimidine-3-carboxamide] | 0.0566 | –
1030 | 410 | CN(C)C(=O)CN1CCN(C(=O)Cn2cc(NC(=O)c3cnn4cccnc34)c(-c3cc(Cl)ccc3OC(F)F)n2)CC1 [Example 325, N-[3-[5-chloro-2-(difluoromethoxy)phenyl]-1-(2-[4-[(dimethylcarbamoyl)methyl]piperazin-1-yl]-2-oxoethyl)-1H-pyrazol-4-yl]pyrazolo[1,5-a]pyrimidine-3-carboxamide] | 0.0651 | –
280 | 210 | O=C(Nc1cn(CCNCc2ccccc2O)nc1-c1cc(Cl)ccc1OC(F)F)c1cnn2cccnc12 [Example 326, N-[3-[5-chloro-2-(difluoromethoxy)phenyl]-1-(2-[[(2-hydroxyphenyl)methyl]amino]ethyl)-1H-pyrazol-4-yl]pyrazolo[1,5-a]pyrimidine-3-carboxamide] | 0.007 | –
200 | 250 | O=C(Nc1cn(CCNCc2cccc(O)c2)nc1-c1cc(Cl)ccc1OC(F)F)c1cnn2cccnc12 [Example 327, N-[3-[5-chloro-2-(difluoromethoxy)phenyl]-1-(2-[[(3-hydroxyphenyl)methyl]amino]ethyl)-1H-pyrazol-4-yl]pyrazolo[1,5-a]pyrimidine-3-carboxamide] | 0.0077 | –
230 | 210 | O=C(Nc1cn(CCNCc2ccc(O)cc2)nc1-c1cc(Cl)ccc1OC(F)F)c1cnn2cccnc12 [Example 328, N-[3-[5-chloro-2-(difluoromethoxy)phenyl]-1-(2-[[(4-hydroxyphenyl)methyl]amino]ethyl)-1H-pyrazol-4-yl]pyrazolo[1,5-a]pyrimidine-3-carboxamide] | 0.0102 | –
1960 | 690 | COC(=O)C1CCN(CCN2CCN(C(=O)Cn3cc(NC(=O)c4cnn5cccnc45)c(-c4cc(Cl)ccc4OC(F)F)n3)CC2)CC1 [Example 333, methyl1-[2-[4-(2-[3-[5-chloro-2-(difluoromethoxy)phenyl]-4-[pyrazolo[1,5-a]pyrimidine-3-amido]-1H-pyrazol-1-yl]acetyl)piperazin-1-yl]ethyl]piperidine-4-carboxylate] | 0.0065 | –
1810 | 690 | CCOC(=O)C1CCN(CCN2CCN(C(=O)Cn3cc(NC(=O)c4cnn5cccnc45)c(-c4cc(Cl)ccc4OC(F)F)n3)CC2)CC1 [Example 334, ethyl 1-[2-[4-(2-[3-[5-chloro-2-(difluoromethoxy)phenyl]-4-[pyrazolo[1,5-a]pyrimidine-3-amido]-1H-pyrazol-1-yl]acetyl)piperazin-1-yl]ethyl]piperidine-4-carboxylate] | 0.0061 | –
2220 | 840 | COC(=O)C1(C)CCN(CCN2CCN(C(=O)Cn3cc(NC(=O)c4cnn5cccnc45)c(-c4cc(Cl)ccc4OC(F)F)n3)CC2)CC1 [Example 335, methyl 1-[2-[4-(2-[3-[5-chloro-2-(difluoromethoxy)phenyl]-4-[pyrazolo[1,5-a]pyrimidine-3-amido]-1H-pyrazol-1-yl]acetyl)piperazin-1-yl]ethyl]-4-methylpiperidine-4-carboxylate formate] | 0.0121 | –

Compound | Ki [2] [pM] | Ki [3, 4] [pM] | EC50 [1] [µM] | Ki [3] [pM]
COC(=O)CNC1CCN(C(=O)Cn2cc(NC(=O)c3cnn4cccnc34)c(-c3cc(Cl)ccc3OC(F)F)n2)CC1 [Example 329, methyl 2-[[1-(2-[3-[5-chloro-2-(difluoromethoxy)phenyl]-4-[pyrazolo[1,5-a]pyrimidine-3-amido]-1H-pyrazol-1-yl]acetyl)piperidin-4-yl]amino]acetate formate] | 760 | – | 0.0115 | 300
